System: Magnaporthe grisea; Anamorph: Pyricularia oryzae
Assay: whole plant or invertebrate
Format: in vivo
Conditions: 100 ppm; 1 Day Protectant; Rice Blast

SMILES	Disease Control PYRIOR 1 DP
COc1ccnc(C(=O)N[C@H]2CCC[C@H](Cc3ccc(F)cc3)[C@@H](OCC3CC3)[C@H](C)OC2=O)c1OCOC(C)=O [Compound F98]	A (80-100)

Same assay, conditions: Pyricularia oryzae, topical, 24 h, read-out: Disease Control PYRIOR 1 DP

SMILES	pest or weed control at 100 ppm
COc1ccnc(C(=O)N[C@H]2CCC[C@H](Cc3ccccc3)[C@@H](OCC(C)C)[C@H](C)OC2=O)c1OCOC(=O)C(C)C [Compound F151]	80 to 100%
CCCO[C@@H]1[C@@H](CCC(C)C)CCC[C@H](NC(=O)c2nccc(OC)c2OC(C)=O)C(=O)O[C@H]1C [Compound F64]	80 to 100%
CCOCC(=O)OCOc1c(OC)ccnc1C(=O)N[C@H]1CCC[C@H](Cc2ccc(F)cc2)[C@@H](OCC2CC2)[C@H](C)OC1=O [Compound F164]	80 to 100%
CCOCC(=O)OCOc1c(OC)ccnc1C(=O)N[C@H]1CCC[C@H](Cc2ccc(F)cc2F)[C@@H](OC(=O)c2ccco2)[C@H](C)OC1=O [Compound F193]	80 to 100%
C=C[C@H]1CCC[C@H](NC(=O)c2nccc(OC)c2OCOC(C)=O)C(=O)O[C@@H](C)[C@@H]1Oc1ccccc1 [Compound F146]	80 to 100%

System: Rhyncosporium secalis
Assay: Barley Scald (RHYNSE) disease control
Format: in vivo
Conditions: 100 ppm, 1 Day Protectant
Experimental: Technical grades of materials were dissolved in acetone, which were then mixed with nine volumes of water containing 110 ppm Triton X-100. The fungicide solutions were applied onto wheat seedlings using an automated booth sprayer to run-off. All sprayed plants were allowed to air dry prior to further handling. All fungicides were evaluated using the aforementioned method for their activity vs. all target diseases. Wheat leaf blotch and brown rust activity were also evaluated using track spray applications, in which case the fungicides were formulated as EC formulations, containing 0.1% Trycol 5941 in the spray solutions. Wheat plants (variety Yuma) were grown from seed in a greenhouse in 50% mineral soil/50% soil-less Metro mix until the first leaf was fully emerged, with 7-10 seedlings per pot. These plants were inoculated with an aqueous spore suspension of Septoria tritici either prior to or after fungicide treatments. After inoculation the plants were kept in 100% relative humidity (one day in a dark dew chamber followed by two to three days in a lighted dew chamber at 20° C.) to permit spores to germinate and infect the leaf. The plants were then transferred to a greenhouse set at 20° C. for disease to develop. When disease symptoms were fully expressed on the 1st leaves of untreated plants, infection levels were assessed on a scale of 0 to 100 percent disease severity. Percent disease control was calculated using the ratio of disease severity on treated plants relative to untreated plants. Barley seedlings (variety Harrington) were propagated in soil-less Metro mix, with each pot having 8 to 12 plants, and used in the test when first leaf was fully emerged. Test plants were inoculated by an aqueous spore suspension of Rhyncosporium secalis 24 hr after fungicide treatments. After inoculation the plants were kept in a dew room at 20° C. with 100% relative humidity for 48 hr. The plants were then transferred to a greenhouse set at 20° C. for disease to develop. Fungicide formulation, application and disease assessment on the sprayed leaves followed the procedures as described in the Example A.

SMILES	Disease Control RHYNSE 1 DP
COc1ccnc(C(=O)N[C@H]2CCC[C@H](Cc3ccc(F)cc3)[C@@H](OCC3CC3)[C@H](C)OC2=O)c1OCOC(C)=O [Compound F98]	A (80-100)

Same assay, conditions: Hordeum vulgare, 24 h, 1 Day Protectant, read-out: Disease Control RHYNSE 1 DP

SMILES	pest or weed control at 100 ppm
CCCO[C@@H]1[C@@H](CCC(C)C)CCC[C@H](NC(=O)c2nccc(OC)c2OC(C)=O)C(=O)O[C@H]1C [Compound F64]	80 to 100%
CCOCC(=O)OCOc1c(OC)ccnc1C(=O)N[C@H]1CCC[C@H](Cc2ccc(F)cc2)[C@@H](OCC2CC2)[C@H](C)OC1=O [Compound F164]	80 to 100%
CCOCC(=O)OCOc1c(OC)ccnc1C(=O)N[C@H]1CCC[C@H](Cc2ccc(F)cc2F)[C@@H](OC(=O)c2ccco2)[C@H](C)OC1=O [Compound F193]	80 to 100%
C=C[C@H]1CCC[C@H](NC(=O)c2nccc(OC)c2OCOC(C)=O)C(=O)O[C@@H](C)[C@@H]1Oc1ccccc1 [Compound F146]	80 to 100%

System: Cercospora beticola
Assay: Leaf Spot of Sugar Beets (CERCBE) disease control
Format: in vivo
Conditions: 100 ppm; 1 Day Protectant; sugar beet
Experimental: Technical grades of materials were dissolved in acetone, which were then mixed with nine volumes of water containing 110 ppm Triton X-100. The fungicide solutions were applied onto wheat seedlings using an automated booth sprayer to run-off. All sprayed plants were allowed to air dry prior to further handling. All fungicides were evaluated using the aforementioned method for their activity vs. all target diseases. Wheat leaf blotch and brown rust activity were also evaluated using track spray applications, in which case the fungicides were formulated as EC formulations, containing 0.1% Trycol 5941 in the spray solutions. Wheat plants (variety Yuma) were grown from seed in a greenhouse in 50% mineral soil/50% soil-less Metro mix until the first leaf was fully emerged, with 7-10 seedlings per pot. These plants were inoculated with an aqueous spore suspension of Septoria tritici either prior to or after fungicide treatments. After inoculation the plants were kept in 100% relative humidity (one day in a dark dew chamber followed by two to three days in a lighted dew chamber at 20° C.) to permit spores to germinate and infect the leaf. The plants were then transferred to a greenhouse set at 20° C. for disease to develop. When disease symptoms were fully expressed on the 1st leaves of untreated plants, infection levels were assessed on a scale of 0 to 100 percent disease severity. Percent disease control was calculated using the ratio of disease severity on treated plants relative to untreated plants. Sugar beet plants (variety HH88) were grown in soil-less Metro mix and trimmed regularly to maintain a uniform plant size prior to test. Plants were inoculated with a spore suspension 24 hr after fungicide treatments. Inoculated plants were kept in a dew chamber at 22° C. for 48 hr then incubated in a greenhouse set at 24° C. under a clear plastic hood with bottom ventilation until disease symptoms were fully expressed. Fungicide formulation, application and disease assessment on the sprayed leaves followed the procedures as described in the Example A.

SMILES	Disease Control CERCBE 1 DP
COc1ccnc(C(=O)N[C@H]2CCC[C@H](Cc3ccc(F)cc3)[C@@H](OCC3CC3)[C@H](C)OC2=O)c1OCOC(C)=O [Compound F98]	A (80-100)

Same assay, conditions: Cercospora beticola, topical, 24 h, 1 Day Protectant, sugar beet, read-out: Disease Control CERCBE 1 DP

SMILES	pest or weed control at 100 ppm
COc1ccnc(C(=O)N[C@H]2CCC[C@H](Cc3ccccc3)[C@@H](OCC(C)C)[C@H](C)OC2=O)c1OCOC(=O)C(C)C [Compound F151]	80 to 100%
CCCO[C@@H]1[C@@H](CCC(C)C)CCC[C@H](NC(=O)c2nccc(OC)c2OC(C)=O)C(=O)O[C@H]1C [Compound F64]	80 to 100%
CCOCC(=O)OCOc1c(OC)ccnc1C(=O)N[C@H]1CCC[C@H](Cc2ccc(F)cc2)[C@@H](OCC2CC2)[C@H](C)OC1=O [Compound F164]	80 to 100%
CCOCC(=O)OCOc1c(OC)ccnc1C(=O)N[C@H]1CCC[C@H](Cc2ccc(F)cc2F)[C@@H](OC(=O)c2ccco2)[C@H](C)OC1=O [Compound F193]	80 to 100%
C=C[C@H]1CCC[C@H](NC(=O)c2nccc(OC)c2OCOC(C)=O)C(=O)O[C@@H](C)[C@@H]1Oc1ccccc1 [Compound F146]	80 to 100%

System: not given
Assay: not given
Conditions: not given

SMILES	melting point
COc1ccnc(C(=O)N[C@H]2CCC[C@H](Cc3ccccc3)[C@@H](OCC(C)C)[C@H](C)OC2=O)c1OCOC(=O)C(C)C [Compound F151]	122 to 124 °C
CCOCC(=O)OCOc1c(OC)ccnc1C(=O)N[C@H]1CCC[C@H](Cc2ccc(F)cc2F)[C@@H](OC(=O)c2ccco2)[C@H](C)OC1=O [Compound F193]	70 to 75 °C

System: Leptosphaeria nodorum
Assay: Wheat Glume Blotch (LEPTNO) disease control
Format: in vivo
Conditions: 100 ppm, 1 Day Protectant
Experimental: Technical grades of materials were dissolved in acetone, which were then mixed with nine volumes of water containing 110 ppm Triton X-100. The fungicide solutions were applied onto wheat seedlings using an automated booth sprayer to run-off. All sprayed plants were allowed to air dry prior to further handling. All fungicides were evaluated using the aforementioned method for their activity vs. all target diseases. Wheat leaf blotch and brown rust activity were also evaluated using track spray applications, in which case the fungicides were formulated as EC formulations, containing 0.1% Trycol 5941 in the spray solutions. Wheat plants (variety Yuma) were grown from seed in a greenhouse in 50% mineral soil/50% soil-less Metro mix until the first leaf was fully emerged, with 7-10 seedlings per pot. These plants were inoculated with an aqueous spore suspension of Septoria tritici either prior to or after fungicide treatments. After inoculation the plants were kept in 100% relative humidity (one day in a dark dew chamber followed by two to three days in a lighted dew chamber at 20° C.) to permit spores to germinate and infect the leaf. The plants were then transferred to a greenhouse set at 20° C. for disease to develop. When disease symptoms were fully expressed on the 1st leaves of untreated plants, infection levels were assessed on a scale of 0 to 100 percent disease severity. Percent disease control was calculated using the ratio of disease severity on treated plants relative to untreated plants. Wheat plants (variety Yuma) were grown from seed in a greenhouse in 50% mineral soil/50% soil-less Metro mix until the first leaf was fully emerged, with 7-10 seedlings per pot. These plants were inoculated with an aqueous spore suspension of Leptosphaeria nodorum 24 hr after fungicide treatments. After inoculation the plants were kept in 100% relative humidity (one day in a dark dew chamber followed by two days in a lighted dew chamber at 20° C.) to permit spores to germinate and infect the leaf. The plants were then transferred to a greenhouse set at 20° C. for disease to develop. Fungicide formulation, application and disease assessment followed the procedures as described in the Example A.

SMILES	Disease Control LEPTNO 1 DP
COc1ccnc(C(=O)N[C@H]2CCC[C@H](Cc3ccc(F)cc3)[C@@H](OCC3CC3)[C@H](C)OC2=O)c1OCOC(C)=O [Compound F98]	A (80-100)

Same assay, conditions: Parastagonospora nodorum, topical, 24 h, 1 Day Protectant, read-out: Disease Control LEPTNO 1 DP

SMILES	pest or weed control at 100 ppm
COc1ccnc(C(=O)N[C@H]2CCC[C@H](Cc3ccccc3)[C@@H](OCC(C)C)[C@H](C)OC2=O)c1OCOC(=O)C(C)C [Compound F151]	80 to 100%
CCCO[C@@H]1[C@@H](CCC(C)C)CCC[C@H](NC(=O)c2nccc(OC)c2OC(C)=O)C(=O)O[C@H]1C [Compound F64]	80 to 100%
CCOCC(=O)OCOc1c(OC)ccnc1C(=O)N[C@H]1CCC[C@H](Cc2ccc(F)cc2)[C@@H](OCC2CC2)[C@H](C)OC1=O [Compound F164]	80 to 100%
CCOCC(=O)OCOc1c(OC)ccnc1C(=O)N[C@H]1CCC[C@H](Cc2ccc(F)cc2F)[C@@H](OC(=O)c2ccco2)[C@H](C)OC1=O [Compound F193]	80 to 100%
C=C[C@H]1CCC[C@H](NC(=O)c2nccc(OC)c2OCOC(C)=O)C(=O)O[C@@H](C)[C@@H]1Oc1ccccc1 [Compound F146]	80 to 100%

System: Phakopsora pachyrhizi
Assay: Asian Soybean Rust (PHAKPA) disease control
Format: in vivo
Conditions: 25 ppm, 1 Day Protectant
Outline: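 Compounds in acetone diluted with nine volumes water containing 0.011% Tween 20, sprayed to run-off on two-week-old Williams 82 soybean seedlings, inoculated 3 days before or 1 day after treatment. Plants held 24 h in dark dew room at 22 °C, 100% RH, then at 23 °C; disease severity scored on sprayed leaves.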

SMILES	Disease Control PHAKPA 1DP
COc1ccnc(C(=O)N[C@H]2CCC[C@H](Cc3ccc(F)cc3)[C@@H](OCC3CC3)[C@H](C)OC2=O)c1OCOC(C)=O [Compound F98]	A (80-100)

Same assay, conditions: 25 ppm, 3 Day Curative

SMILES	Disease Control PHAKPA 3DC
COc1ccnc(C(=O)N[C@H]2CCC[C@H](Cc3ccc(F)cc3)[C@@H](OCC3CC3)[C@H](C)OC2=O)c1OCOC(C)=O [Compound F98]	A (80-100)

Same assay, conditions: Phakopsora pachyrhizi, topical, 24 h, 1 Day Protectant, read-out: Disease Control PHAKPA 1DP

SMILES	pest or weed control at 25 ppm
COc1ccnc(C(=O)N[C@H]2CCC[C@H](Cc3ccccc3)[C@@H](OCC(C)C)[C@H](C)OC2=O)c1OCOC(=O)C(C)C [Compound F151]	80 to 100%
CCCO[C@@H]1[C@@H](CCC(C)C)CCC[C@H](NC(=O)c2nccc(OC)c2OC(C)=O)C(=O)O[C@H]1C [Compound F64]	80 to 100%
CCOCC(=O)OCOc1c(OC)ccnc1C(=O)N[C@H]1CCC[C@H](Cc2ccc(F)cc2)[C@@H](OCC2CC2)[C@H](C)OC1=O [Compound F164]	80 to 100%
CCOCC(=O)OCOc1c(OC)ccnc1C(=O)N[C@H]1CCC[C@H](Cc2ccc(F)cc2F)[C@@H](OC(=O)c2ccco2)[C@H](C)OC1=O [Compound F193]	0 to 80%
C=C[C@H]1CCC[C@H](NC(=O)c2nccc(OC)c2OCOC(C)=O)C(=O)O[C@@H](C)[C@@H]1Oc1ccccc1 [Compound F146]	80 to 100%

Same assay, conditions: Phakopsora pachyrhizi, topical, 72 h, 3 Day Curative, read-out: Disease Control PHAKPA 3DC

SMILES	pest or weed control at 25 ppm
COc1ccnc(C(=O)N[C@H]2CCC[C@H](Cc3ccccc3)[C@@H](OCC(C)C)[C@H](C)OC2=O)c1OCOC(=O)C(C)C [Compound F151]	80 to 100%
CCCO[C@@H]1[C@@H](CCC(C)C)CCC[C@H](NC(=O)c2nccc(OC)c2OC(C)=O)C(=O)O[C@H]1C [Compound F64]	80 to 100%
CCOCC(=O)OCOc1c(OC)ccnc1C(=O)N[C@H]1CCC[C@H](Cc2ccc(F)cc2)[C@@H](OCC2CC2)[C@H](C)OC1=O [Compound F164]	0 to 80%
CCOCC(=O)OCOc1c(OC)ccnc1C(=O)N[C@H]1CCC[C@H](Cc2ccc(F)cc2F)[C@@H](OC(=O)c2ccco2)[C@H](C)OC1=O [Compound F193]	0 to 80%
C=C[C@H]1CCC[C@H](NC(=O)c2nccc(OC)c2OCOC(C)=O)C(=O)O[C@@H](C)[C@@H]1Oc1ccccc1 [Compound F146]	80 to 100%

— patent publication US9265253B2, “Use of macrocyclic picolinamides as fungicides” (DOW AGROSCIENCES LLC, priority 2013, dated 2016)
